The values below come from PubChem BioAssay (NCI).

Among the test systems are MALME-3M melanoma; SF-268 CNS; SN12C renal; OVCAR-5 ovarian; UACC-257 melanoma; OVCAR-8 ovarian; SNB-19 CNS; HT29 colon; K-562 leukemia; MDA-MB-435.
Holding throughout (assay): NCI-60 cell line screen, 48 h

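96-well plates; 48 h exposure; 5 concentrations. Endpoints by linear interpolation between flanking doses. Not reached: highest tested concentration assigned. At the GI50, growth is halved. At the TGI there is no net growth.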

For the compound `COc1ccc(-c2cc(-c3cn[nH]c3-c3ccccn3)ccn2)cc1`, the GI50 with MALME-3M melanoma, with SF-268 CNS, in the assay with SN12C renal, in the assay on OVCAR-5 ovarian, in the assay on UACC-257 melanoma and in the assay with OVCAR-8 ovarian was greater than 25 µM in each case. Besides, the GI50 in the assay on SNB-19 CNS was greater than 25 µM; in the assay on HT29 colon, greater than 25 µM; in the assay with K-562 leukemia, 14 µM; in the assay on MDA-MB-435, greater than 19.2 µM. The TGI in the assay on MALME-3M melanoma, in the assay on SF-268 CNS, in the assay with SN12C renal, with OVCAR-5 ovarian, with UACC-257 melanoma and in the assay on OVCAR-8 ovarian was greater than 25 µM each time. The TGI in the assay on SNB-19 CNS, in the assay with HT29 colon, in the assay with K-562 leukemia and with MDA-MB-435 was greater than 25 µM each time.

Take `Nc1nc(N)c2c(ccc3nccc32)[nH]1`: the GI50 with MALME-3M melanoma is 5.28 µM; with SF-268 CNS, 2.11 µM; in the assay with SN12C renal, 6.91 µM; with OVCAR-5 ovarian it was 12.4 µM; with UACC-257 melanoma, 1.54 µM; in the assay with OVCAR-8 ovarian, 4.62 µM. The GI50 in the assay on SNB-19 CNS is 7.98 µM; in the assay on HT29 colon it was 1.67 µM; in the assay on K-562 leukemia, 0.319 µM; in the assay on MDA-MB-435, 0.688 µM. Moreover, the TGI was 33.6 µM with MALME-3M melanoma; 56.2 µM in the assay on SF-268 CNS; greater than 68.6 µM in the assay with SN12C renal; greater than 100 µM in the assay on OVCAR-5 ovarian; 17.9 µM with UACC-257 melanoma; greater than 100 µM in the assay on OVCAR-8 ovarian. In addition, the TGI in the assay with SNB-19 CNS is greater than 100 µM; in the assay with HT29 colon it was greater than 73.9 µM; in the assay on K-562 leukemia it was greater than 100 µM; in the assay with MDA-MB-435 it was 35.4 µM.

For the compound `Nc1c(C(=O)c2cccc(C#CCN3CCOCC3)c2)cnn1-c1ccc(F)cc1`, the GI50 with MALME-3M melanoma is greater than 12.4 µM; with SF-268 CNS it was greater than 25 µM; in the assay on SN12C renal, greater than 25 µM; in the assay on OVCAR-5 ovarian, greater than 25 µM; in the assay with UACC-257 melanoma, greater than 18.6 µM; with OVCAR-8 ovarian, greater than 25 µM. In addition, the GI50 in the assay with SNB-19 CNS is greater than 25 µM; in the assay with HT29 colon, 10.9 µM; in the assay on K-562 leukemia, 7.91 µM; with MDA-MB-435, 4.41 µM. The TGI in the assay with MALME-3M melanoma, in the assay on SF-268 CNS, with SN12C renal, in the assay with OVCAR-5 ovarian, with UACC-257 melanoma and with OVCAR-8 ovarian was greater than 25 µM in each case. The TGI is greater than 25 µM in the assay on SNB-19 CNS, greater than 25 µM in the assay on HT29 colon, greater than 25 µM in the assay with K-562 leukemia and greater than 17.4 µM with MDA-MB-435.

In the case of `CCCCCCCCCCCC[n+]1ccccc1`, the GI50 in the assay on MALME-3M melanoma was 1.18 µM; with SF-268 CNS, 1.58 µM; with SN12C renal, 1.63 µM; in the assay with OVCAR-5 ovarian it was 1.57 µM; in the assay on UACC-257 melanoma, 1.23 µM; in the assay with OVCAR-8 ovarian it was 1.03 µM. Also, the GI50 in the assay on SNB-19 CNS is 1.3 µM; with HT29 colon, 0.381 µM; with K-562 leukemia, 0.415 µM; in the assay on MDA-MB-435 it was 1.18 µM. Moreover, the TGI with MALME-3M melanoma worked out at 3.41 µM; in the assay with SF-268 CNS it was 5.67 µM; with SN12C renal, 4.11 µM; with OVCAR-5 ovarian, 7.67 µM; with UACC-257 melanoma, 3.97 µM; in the assay with OVCAR-8 ovarian, 5.28 µM. Also, the TGI worked out at 2.94 µM in the assay on SNB-19 CNS, 5.47 µM with HT29 colon, 11.4 µM with K-562 leukemia and 3.22 µM in the assay on MDA-MB-435.

In the case of `Cc1cccc(NC(=O)CCl)c1`, the TGI in the assay with MALME-3M melanoma, with SF-268 CNS, in the assay with SN12C renal, in the assay with OVCAR-5 ovarian, with UACC-257 melanoma and in the assay on OVCAR-8 ovarian was greater than 10 µM throughout. Besides, the TGI with SNB-19 CNS, in the assay with HT29 colon, in the assay on K-562 leukemia and in the assay on MDA-MB-435 was greater than 10 µM each time.

In the case of `CN1CCN(Cc2ccc(NC(=O)c3nc4ccc5[nH]ncc5c4c4c3CCC4)cc2C(F)(F)F)CC1`, the GI50 in the assay on MALME-3M melanoma is 0.8 µM; with SF-268 CNS, 7.97 µM; with SN12C renal, 0.873 µM; in the assay on OVCAR-5 ovarian it was 0.994 µM; in the assay on UACC-257 melanoma it was 0.99 µM; in the assay with OVCAR-8 ovarian, 1.05 µM. The GI50 was 0.976 µM in the assay on SNB-19 CNS, 1.02 µM in the assay on HT29 colon, 0.978 µM in the assay with K-562 leukemia and 0.926 µM in the assay with MDA-MB-435. The TGI stood at 1.52 µM in the assay on MALME-3M melanoma; 16.5 µM with SF-268 CNS; 1.64 µM in the assay with SN12C renal; 2.41 µM with OVCAR-5 ovarian; 2.01 µM in the assay on UACC-257 melanoma; 2.22 µM in the assay with OVCAR-8 ovarian. The TGI was 2.11 µM in the assay with SNB-19 CNS, 2.08 µM in the assay with HT29 colon, 2.39 µM with K-562 leukemia and 1.71 µM in the assay with MDA-MB-435.

On to `CC1=CC2=C(C(N)=O)C(=O)OC2(C)C(c2ccccc2)C1` (stereo not given), for which the TGI with MALME-3M melanoma, in the assay with SF-268 CNS, in the assay on SN12C renal, with OVCAR-5 ovarian, in the assay on UACC-257 melanoma and with OVCAR-8 ovarian was greater than 100 µM throughout. In addition, the TGI in the assay with SNB-19 CNS, in the assay with HT29 colon, with K-562 leukemia and in the assay with MDA-MB-435 was greater than 100 µM in each case.

Turning to `COc1cc2nc(N3CCCC3)nc(Nc3ccccc3)c2cc1OC`, the GI50 with MALME-3M melanoma was 1.88 µM; with SF-268 CNS it was 1.85 µM; with SN12C renal it was 1.72 µM; in the assay with OVCAR-5 ovarian it was 1.75 µM; with UACC-257 melanoma, 1.86 µM; in the assay with OVCAR-8 ovarian, 1.54 µM. In addition, the GI50 in the assay with SNB-19 CNS was 1.65 µM; with HT29 colon, 1.34 µM; with K-562 leukemia, 0.382 µM; in the assay with MDA-MB-435, 1.66 µM. For the same compound, the TGI in the assay with MALME-3M melanoma is 3.37 µM; in the assay on SF-268 CNS, 3.93 µM; in the assay on SN12C renal it was 3.24 µM; with OVCAR-5 ovarian, 3.14 µM; in the assay on UACC-257 melanoma, 3.79 µM; with OVCAR-8 ovarian, 5.06 µM. Besides, the TGI is 3.14 µM with SNB-19 CNS, 3.11 µM in the assay on HT29 colon, 2.07 µM in the assay on K-562 leukemia and 3.09 µM with MDA-MB-435.
